System: Sphaerotheca fuliginea
Assay: In vivo test on Sphaerotheca fuliginea (powdery mildew)
Conditions: gherkin plants, preventive spray 24 h before contamination, dose 600 g/ha, grading 13 days after contamination vs control plants
Method: The active ingredients tested are prepared by homogenization in a mixture of DMSO (dimethylsulfoxide)/acetone/tween/water. This suspension is then diluted with water to obtain the desired active material concentration.
Gherkin plants (Vert petit de Paris variety) in starter cups, sown on a 50/50 peat soil-pozzolana substrate and grown at 20° C./23° C., are treated at cotyledons stage by spraying with the aqueous suspension described above. Plants, used as controls, are treated with an aqueous solution not containing the active material.
After 24 hours, the plants are contaminated by spraying them with an aqueous suspension of Sphaerotheca fuliginea spores (100 000 spores per ml). The spores are collected from a contaminated plants. The contaminated gerkhin plants are incubated at about 20° C./25° C. and at 60/70% relative humidity.
Grading (% of efficacy) is carried out 13 days after the contamination, in comparison with the control plants.

## Cn1cc(C(=O)N[C@@H]2CCCC[C@@H]2c2ncc(Cl)cc2Cl)c(C(F)F)n1 (relative stereo) [Compound A-2, N-{2-[3,5-dichloro-2-pyridinyl]cis-cyclohexyl}1-methyl-3-(difluoromethyl)-1H-pyrazole-4-carboxamide]
  protection, % of efficacy (good, at least 70%): at least 70%
